# Patent US9057725B2, “Composition for diagnosing, treating, and preventing liver disease” (SNU R&DB Foundation, priority 2010, dated 2015)
# “Also recorded” adds a separate entry of the source.
# Key:
# TM4SF5 [1] = target: T1, TM4SF5 (Homo sapiens, UniProt O14894); test: TGFβ1 mediated vimentin expression in Chang cells, Western blotting; assay type: cell-based; conditions: 5 μM or 10 μM
# T1 construct: endogenous in cells; host or cells: Chang cells (ATCC), TGFβ-treated
# T1 sequence (O14894 1-197): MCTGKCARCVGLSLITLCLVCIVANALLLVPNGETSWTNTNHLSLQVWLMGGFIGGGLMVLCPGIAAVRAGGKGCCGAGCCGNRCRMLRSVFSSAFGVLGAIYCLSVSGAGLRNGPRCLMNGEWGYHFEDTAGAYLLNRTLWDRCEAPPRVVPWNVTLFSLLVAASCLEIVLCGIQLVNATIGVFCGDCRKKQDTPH
# Experimental: FIG. 26 is a set of photographs illustrating the results of Western blotting performed to confirm the level of vimentin expression mediated by TGFβ in Chang cells treated with TSAHC, 4′-(p-aminobenzenesulfoneamide)-4-hydroxychalcone, and 4,4-dihydroxychalcone.
# (§1) In addition, 4′-(p-aminobenzenesulfonamide)-4-hydroxychalcone (ASAHC), the water-soluble […], was treated to AML12 and Chang cells at the concentration of 5 μM or 10 μM.
# TM4SF5 [2] = target: T2, TM4SF5 (Mus musculus, UniProt F6X2F3); test: TGFβ1 mediated vimentin expression in AML12 cells, Western blotting; assay type: cell-based; conditions: 5 μM or 10 μM
# T2 construct: normal hepatocytes were treated with TGFβ to induce TM4SF5 expression and EMT, during which TSAHC was treated; endogenous in cells; host or cells: AML12 (ATCC), TGFβ-treated
# T2 sequence (F6X2F3 1-196): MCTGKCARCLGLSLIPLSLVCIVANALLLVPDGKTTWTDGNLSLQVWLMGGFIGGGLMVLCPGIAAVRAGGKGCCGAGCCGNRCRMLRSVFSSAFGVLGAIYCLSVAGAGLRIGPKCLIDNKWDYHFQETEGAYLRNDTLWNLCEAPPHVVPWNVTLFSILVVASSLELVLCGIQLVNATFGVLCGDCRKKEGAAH
# Experimental: FIG. 27 is a set of photographs illustrating the results of Western blotting performed to confirm the level of vimentin expression mediated by TGFβ in AML12 cells treated with TSAHC, 4′-(p-aminobenzenesulfoneamide)-4-hydroxychalcone, and 4,4-dihydroxychalcone.
# as §1
# TM4SF5 [3] = target: T2, TM4SF5; test: TGFβ mediated α-SMA expression in normal hepatocytes (AML12 cells) treated with TM4SF5 antagonist, Western blotting; assay type: cell-based
# Experimental: FIG. 25 is a set of photographs illustrating the results of Western blotting performed to confirm the level of α-SMA expression induced by TGFβ in AML12 cells treated with TSAHC and […].
# First, normal hepatocytes were treated with TGFβ to induce TM4SF5 expression and EMT, during which TSAHC was treated. As described hereinbefore, the normal hepatocytes were washed with serum-free DMEM, followed by serum starvation for 4 hours. Then, the cells treated with TGFβ to induce TM4SF5 expression. 6 hours later, the cells were treated with TSAHC at the concentration of 5 μM or 10 μM, followed by culture for 18 hours. The expression of α-SMA protein was investigated.
# For the comparison, the cells were treated with the control compound that had similar structure to TSAHC but had substituted R residue (4′-amino-4-hydroxychalcone) at the same concentration as the above (5 μM or 10 μM).
# [4] = system: Balb/c mice treated with CCl4; test: Hepatic injury and hepatic fibrosis induced by CCl4 in mice; assay type: in vivo, mouse; conditions: for hepatic injury (H&E staining): 50 mg/kG oral administration or IP, 3 times/week; for hepatic injury (H&E staining) / collagen type I expression (Masson's Trichrome staining): 2 weeks; for collagen type I expression (Masson's Trichrome staining): oral administration or IP, 50 mg/kG; for Ser10 phosphorylation induction (p27) / TM4SF5 signal transduction process (phosphorylation of Smad3, phosphorylation and activation of EFGR/Erk) / p27 expression / α-SMA expression induction: liver tissue extract, Western blotting
# Experimental: Balb/c mice (5 weeks old, n=5) were used. The mice were fed with sterilized water and feeds. For the biological day/night cycle, the indoor light was turned on for 12 hours and off for 12 hours. The mice were treated with CCl4 or ethanol for 2 weeks. The CCl4 group mice were treated with 40% CCl4 diluted in olive oil by intraperitoneal administration ([…], 3 times/week). The CCl4-ContComp group mice were treated with 4′-Amino-4-hydroxychalcone, the control compound (ContComp), every other day and every next day of CCl4 treatment by IP (intraperitoneal injection) or oral administration (50 mg/kG, 40% DMSO, 3 times/week). The CCl4-TSAHC group mice were treated with TSAHC every other day and every next day of CCl4 treatment by IP (intraperitoneal injection) or oral administration (50 mg/kG, 40% DMSO, 3 times/week).
# Two weeks later, the mice were sacrificed by using ether. The liver was extracted from the sacrificed animal of each group. Paraffin samples were prepared by the same manner as described in Example 5. The paraffin sections in the thickness of 4-5 μm were fixed on slide, followed by H&E (hematoxylin and eosin) staining for the confirmation of hepatic injury, Masson's Trichrome […] staining for collagen type I staining, and immunihistochemistry with the antibody (1:1500) against α-SMA (smooth muscle actin, Sigma).
# Additionally, two mice were randomly selected from each group, from which liver tissue extract was prepared. The protein in the extract was quantified, followed by Western blotting with antibodies against phospho-Y^1173EGFR (Santa Cruz Biotechnology, Santa Cruz, Calif.), phospho-Y^1068EGFR (Santa Cruz Biotechnology, Santa Cruz, Calif.), EGFR (Santa Cruz Biotechnology, Santa Cruz, Calif.), phospho-Erk (Cell Signaling Technology, Danvers, Mass.), Erk (Cell Signaling Technology, Danvers, Mass., USA), phospho-Smad3 (Cell Signaling Technology, Danvers, Mass.), TM4SF5 (antibody of Example 1), α-SMA (smooth muscle actin, Sigma), phospho-S^10-p27 (Santa Cruz Biotechnology, Santa Cruz, Calif., USA), p27 (BD Transduct. Lab. San Jose Calif., USA), and α-tubulin (Sigma-Aldrich).
# Chang cells = test: TM4SF5 expression and EGFR signal transduction system over treatment times of TGFβ and EGF in Chang cells; assay type: cell-based, human
# Experimental: Chang cells were cultured in DMEM supplemented with 10% FBS, which were then washed with serum-free DMEM. The cells were maintained as serum-free status for 4 hours. […] Then, TM4SF5 expression and EGFR signal transduction system were investigated.
# AML12 cells = test: TM4SF5 expression in AML12 cells treated with EGF, HGF and PDGF before TGFβ; assay type: cell-based, mouse; conditions: growth factor 30 minutes before TGFβ (2.5 ng/ml), 24 hours, serum-free
# Experimental: AML12 cells were cultured in DMEM supplemented with 10% FBS, which were then washed with serum-free DMEM. The cells were maintained as serum-free status for 4 hours. After serum starvation, the cells were treated with EGF, HGF, and PDGF (PeproTech, Inc., Rocky Hill, N.J., USA) 30 minutes before the treatment of TGFβ (2.5 ng/ml) in order to activate EGFR signaling. The cells were further cultured for 24 hours after the treatment of TGFβ. AML12 cell line was the normal hepatocyte cell line which was sensitive to serum. To make near death condition, the medium was regulated as serum-free and the experiment was carried out under the serum-free condition and ITS (Insulin, transferrin, selenium, Sigma-Aldrich) treated condition, which was the same serum-free condition as mentioned above.
# Western blotting was performed to confirm TM4SF5 expression. As a result, when the cells were treated with EGF, HGF, and PDGF, EGFR signaling was activated and thereby TM4SF5 expression was increased (FIG. 11).
# [5] = AML12 cells, compound 5 μM or 10 μM 6 hours after TGFβ, culture for 18 hours, Western blotting
# [6] = liver tissue of CCl4 treated mice
molecule,measurement,setting,value
"O=C(/C=C/c1ccc(O)cc1)c1ccc(O)cc1 [4′4-dihydroxychalcone, reference compound]",TGFβ1 mediated vimentin expression,TM4SF5 [1],not much changed
same,TGFβ1 mediated vimentin expression,TM4SF5 [2],not much changed
"Nc1ccc(C(=O)/C=C/c2ccc(O)cc2)cc1 [4′-amino-4-hydroxychalcone, reference compound]",TGFβ mediated α-SMA expression,TM4SF5 [3]; [5],did not affect
same,TM4SF5 expression,TM4SF5 [3]; [5],did not affect
same,hepatic injury (H&E staining),[4]; CCl4 together with compound,CCl4 dependency was not observed
same,collagen type I expression (Masson's Trichrome staining),[4]; CCl4 together with compound,not detected
same,Ser10 phosphorylation induction (p27),[4],not inhibited
same,"TM4SF5 signal transduction process (phosphorylation of Smad3, phosphorylation and activation of EFGR/Erk)",[4],not affected
same,p27 expression,[4],not inhibited
same,α-SMA expression induction,[4],not inhibited
same,EMT,[4]; [6],not inhibited
"Nc1ccc(S(=O)(=O)Nc2ccc(C(=O)/C=C/c3ccc(O)cc3)cc2)cc1 [ASAHC, 4′-(p-aminobenzenesulfonylamino)-4-hydroxychalcone]",TGFβ1 mediated vimentin expression,TM4SF5 [1],down-regulated
same,TGFβ1 mediated vimentin expression,TM4SF5 [2],down-regulated
"Cc1ccc(S(=O)(=O)Nc2ccc(C(=O)/C=C/c3ccc(O)cc3)cc2)cc1 [TSAHC, 4′-(p-toluenesulfonylamino)-4-hydroxychalcone]",TGFβ1 mediated vimentin expression,TM4SF5 [1],down-regulated
same,TGFβ mediated α-SMA expression,TM4SF5 [3]; [5],significantly reduced; also recorded: inhibit
same,EFGR/Erk phosphorylation,TM4SF5 [3]; normal hepatocytes treated with TGFβ and compound,reduced
same,hepatic injury (H&E staining),[4]; CCl4 together with compound,reduced
same,α-SMA expression (immunohistochemical staining),"[4]; CCl4 together with compound, liver tissue",reduced
same,collagen type I expression (Masson's Trichrome staining),[4]; CCl4 together with compound,decrease; also recorded: reduced
same,"liver H&E staining, compound only","[4]; group treated with compound only, without CCl4",normal liver
same,Ser10 phosphorylation induction (p27),[4],inhibited
same,"TM4SF5 signal transduction process (phosphorylation of Smad3, phosphorylation and activation of EFGR/Erk)",[4],not affected
same,p27 expression,[4],inhibited
same,α-SMA expression induction,[4],inhibited
same,EMT,[4]; [6],decrease; also recorded: inhibited
same,TM4SF5 activity,[4]; [6],suppressed
same,TGFβ1 mediated vimentin expression,TM4SF5 [2],down-regulated
EGF: growth factor (PeproTech) used to activate EGFR signaling,"EGFR signal transduction system activation and TM4SF5 expression, EGF only",Chang cells; EGF only for 4 hours at different concentrations,not particularly induced
same,EGFR signal transduction system activation and TM4SF5 expression over time,"Chang cells; TGFβ (2.5 ng/ml) and EGF (50 ng/ml), 0, 0.5, 1, 2, and 24 hours",induced temporally
same,TM4SF5 expression,AML12 cells,increased
HGF: growth factor (PeproTech) used to activate EGFR signaling,TM4SF5 expression,AML12 cells,increased
PDGF,TM4SF5 expression,AML12 cells,increased
